Where two headings read alike, the source gives them in different places.
Experiments:
Human fibroblasts = assay: Cytophotoprotection of human fibroblasts against UVA radiation (cell proteins, MDA released); format: cell-based; conditions: for activity at 0.01 % strength / activity at 0.03 % strength: Homo sapiens, Fibroblast, light or radiation study, % against control, UVA 20 J/cm2; for activity at 0.01 % strength: dose 0.01 % w/v; for activity at 0.03 % strength: dose 0.03 % w/v
Procedure: The cytoprotection against UVA irradiation has been evaluated by a test on human fibroblasts because UVA radiation penetrates through the epidermis until the dermis where it induces oxidative stress, mainly by activation of photosensitising biological components, which catalyse the formation of ROS like anion superoxide, hydrogen peroxide and singlet oxygen, and lipoperoxydation of the cell membrane. These oxidative stress effects are evaluated in vitro due to measuring of the level of released malondialdehyde (MDA) (Morlière P., Moisan A., Santus R., Huppe G., Mazière J.C., Dubertret L. UV-A induced lipid peroxydation in cultured human fibroblasts. Biochim. Biophys. Acta (1991) Vol 1084, pp 261-269). The lipoperoxides formed after UVA irradiation undergo a decay into malondialdehyde which can form cross-links between many biological molecules like proteins with inhibition of enzymes and nucleic bases with risk of mutagenesis.
Human fibroblasts were inoculated with growth medium (DMEM+FCS) and incubated 3 days at 37°C, with 5% CO2. The growth medium was then exchanged by a medium containing the ingredient to be tested and was incubated 2 days at 37°C under an atmosphrere with 5 % of carbon dioxide. After the exchange of the medium bya balanced salt solution, the cell culture was irradiated with UVA radiation (20J/cm^2). Cell proteins were measured, and MDA released in the supernatant was determined spectrophotometrically.

[1] = Anti hydroxyl radicals: HO° test with deoxyribose (Fenton's reaction); conditions: no EDTA; optical density at 532 nm; average of 2 assays
Procedure: (§1) The anti-free radical (anti-FR) activity has been evaluated by chemical tests for the evaluation of the potential to scavenge free radicals R° (DPPH° test) and hydroxyl radicals HO°. Furthermore the anti-FR activity has been evaluated by biochemical tests to address the potential for scavenging of a kind of reactive oxygen species (ROS), so called superoxide anions (02°).
The hydroxyle radical HO* (formed by H2O2 in presence of Fe++) oxidises deoxyribose, then a pink compound is formed by condensation of thiobarbituric acid with the oxidised form of deoxyribose. The level of oxidised deoxyribose is determined by measurement of the optical density at 532 nm.

[2] = Anti-inflammatory activity on human leucocytes cultured in vitro (Zymosan-induced respiratory burst, luminol luminescence); format: cell-based; conditions: human, leukocytes, % against control, average of 2-3 assays, each carried out 3 times, read-out: Cell number
Procedure: (§2) Human leukocytes (Polymorphonuclear neutrophilic granulocytes) were incubated with dihydrosinapinic acid during 1 day at 37°C under an atmosphere with 5 % carbon dioxide. The respiratory burst was induced by addition of a yeast extract ("Zymosan"). After incubation for 0.5 hours at 37 °C under an atmosphere with 5 % carbon dioxide the cell number was measured using an automatic cell counter and the rate of released reactive oxygen species was recorded by a luminescent reaction with luminol. (Pieper G.M., Gross G.J. EMD 52692 (bimakalim) a new potassium channel opener, attenuates luminol-enhanced chemiluminescence and superoxide anion radical formation by Zymosan-activated polymorphonuclear leukocytes (Immunopharmacology (1992) vol 23, pp 191-197). Table 3

[3] = test system: Human leukocytes (Polymorphonuclear neutrophilic granulocytes); assay: as above; format: cell-based
Procedure: as §2

Lipoxygenase = assay: Inhibition test on lipoxygenase (released superoxide anions, luminol luminescent probes); format: biochemical; conditions: rate of released superoxide anions; mean of 2 assays
Procedure: The anti-free radical (anti-FR) activity has been evaluated by chemical tests for the evaluation of the potential to scavenge free radicals R° (DPPH° test) and hydroxyl radicals HO°. Furthermore the anti-FR activity has been evaluated by biochemical tests to address the potential for scavenging of a kind of reactive oxygen species (ROS), so called superoxide anions (02°). […] Lipoxygenase was incubated with a specific substrate (unsaturated fatty acid) and the ingredient to be tested. Then the rate of released superoxide anions was evaluated by Luminol luminescent probes. The IC50 (mean of 2 assays) of dihydrosinapinic acid was 0.0002 % (w/v).

[4] = Anti free radicals: DPPH° (diphenylpicryl-hydrazyl) test; conditions: optical density at 513 nm; average of two assays
Procedure: as §1
The DPPH° scavenging effect of dihydrosinapinic acid has been measured by recording the optical density at 513 nm (DEBY C. Relation entre les acides gras essentiels et le taux des antioxydants tissulaires chez la souris. SOCIETE BELGE DE BIOLOGIE, séance du 19 décembre 1970, pp: 2675-2680). The IC50 (Inhibitory Concentration 50 %: dose for which 50 % of DPPH° is scavenged, average of two assays) of dihydrosinapinic acid is 0.0006 % (w/v).

[5] = average of 2 assays, each carried out three times, read-out: Cell proteins
[6] = irradiated control = 100, read-out: MDA released

IC50 (HO° test with deoxyribose) [1]: 0.025 % (w/v)
IC50 (lipoxygenase inhibition) (Lipoxygenase): 0.0002 % (w/v)
IC50 (dose for which 50 % of DPPH° is scavenged) [4]: 0.0006 % (w/v)
SMILES: COc1cc(CCC(=O)O)cc(OC)c1O [Dihydrosinapinic acid, 3-(4-hydroxy-3,5-dimethoxyphenyl) propionic acid]
activity at 0.01 % strength (Human fibroblasts; [5]): 121%
activity at 0.01 % strength (Human fibroblasts; [6]): 47%
activity at 0.03 % strength (Human fibroblasts; [5]): 140%
activity at 0.03 % strength (Human fibroblasts; [6]): 12%
protection of the cells against UVA-induced MDA released (Human fibroblasts; result in words, after incubation of the fibroblasts): strong protection
viability ([2]; dose 0.0001 % w/v): 99%
viability ([2]; dose 0.0003 % w/v): 98%
activity at 0.0001 % strength ([3]; Homo sapiens, Leukocyte, % against control, dose 0.0001 % w/v, Zymosan-activated, read-out: Released ROS): 25%
activity at 0.0003 % strength ([3]; Homo sapiens, Leukocyte, % against control, dose 0.0003 % w/v, Zymosan-activated, read-out: Released ROS): 13%
respiratory burst (release of reactive oxygen species) ([3]; result in words, Zymosan-activated polymorphonuclear neutrophilic granulocytes): inhibited
